Like-named read-outs stand apart in the source and are kept apart here.
Experiments:
[1] = Urinary oxalate excretion in pyridoxamine-treated rats (oxalate oxidase method); type: in vivo, Sprague-Dawley rats; conditions: pyridoxamine in drinking water, 1.2 μm/day/gram body weight
Method: (§1) Two month old Sprague-Dawley rats were housed individually in metabolic cages and fed standard powdered stock rations. […] To minimize possible chemical degradation of pyridoxamine, fresh solutions were prepared daily and administered in water bottles wrapped in aluminum foil.
Twenty-four hour urine samples were collected under toluene (to inhibit bacterial growth) using containers with 2 M hydrochloric acid to minimize spontaneous breakdown of urinary ascorbic acid to oxalate (21). The urine samples were stored at −70° C. until further analysis. Under these conditions, frozen urine can be stored for at least 1 month with no effect on oxalate measurements (22). Collected urine samples were analyzed to determine concentrations of oxalate using the oxalate oxidase method (23). This assay is highly specific and sensitive to about 10 μM (23). Oxalate oxidase from Barley seedlings was purchased from Sigma Co. (St. Louis, Mo.). The method is based on the conversion of oxalate to hydrogen peroxide and carbon dioxide by oxalate oxidase. […] was determined enzymatically with horseradish peroxidase by oxidative coupling of 3-methyl-2-benzothiazolinone hydrazone with N,N-dimethylaniline. The resulting colored product was determined spectrophotometrically at 595 nm. The modified sample preparation procedure was used, which replaces column chromatography with a simple precipitation step (24).

[2] = Body weight, behavior and water consumption of pyridoxamine-treated rats; type: in vivo, Sprague-Dawley rats
Method: as §1

[3] = Ethylene glycol (EG) rat model of experimental hyperoxaluria; type: in vivo; conditions: rats given EG […] solution in drinking water; predicted result
Text: Both compounds are precursors of oxalate synthesis and their administration results in increased urinary oxalate concentration. […] The use of two different models also helps to minimize possible model-specific adverse effects. […] The results for Day-14 oxalate are known by Day 15, at which time the animals within each group (Control, EG) are pair-matched according to their Day-14 oxalate. The pyridoxamine and no-pyridoxamine groups therefore begin the pyridoxamine-treatment period with nearly identical mean and standard deviation oxalate excretion, which optimizes the sensitivity of this experimental design.

oxalate oxidase = target: T1, oxalate oxidase (Hordeum vulgare, UniProt P45850); assay: Interference of pyridoxamine with urinary oxalate determination by oxalate oxidase method; parameters: species or system Barley; conditions: pyridoxamine added to assay mixtures, final concentration 2 mg/ml
T1 construct: Oxalate oxidase from Barley seedlings was purchased from Sigma Co; purchased Sigma Co. (St. Louis, Mo.); host or cells: barley seedlings (natural source)
T1 sequence (P45850 1-201): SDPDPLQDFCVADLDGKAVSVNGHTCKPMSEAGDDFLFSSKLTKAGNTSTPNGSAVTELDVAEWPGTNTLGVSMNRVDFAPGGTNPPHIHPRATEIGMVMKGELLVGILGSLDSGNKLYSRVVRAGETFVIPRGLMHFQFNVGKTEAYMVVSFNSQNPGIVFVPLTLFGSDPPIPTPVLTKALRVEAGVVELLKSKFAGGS
Method: Twenty-four hour urine samples were collected under toluene (to inhibit bacterial growth) using containers with 2 M hydrochloric acid to minimize spontaneous breakdown of urinary ascorbic acid to oxalate (21). The urine samples were stored at −70° C. until further analysis. […] Collected urine samples were analyzed to determine concentrations of oxalate using the oxalate oxidase method (23). This assay is highly specific and sensitive to about 10 μM (23). […] The method is based on the conversion of oxalate to hydrogen peroxide and carbon dioxide by oxalate oxidase. The latter was determined enzymatically with horseradish peroxidase by oxidative coupling of 3-methyl-2-benzothiazolinone hydrazone with N,N-dimethylaniline. The resulting colored product was determined spectrophotometrically at 595 nm. The modified sample preparation procedure was used, which replaces column chromatography with a simple precipitation step (24).

[4] = diabetic rat model, 7 months, same dose; cited from earlier work
[5] = cited from earlier work
[6] = rat model of hyperoxaluria; cited from earlier work
[7] = cited from earlier work; remark: listed apart in the source

Cc1ncc(CO)c(CN)c1O.Cl.Cl [pyridoxamine, Pyridoxamine dihydrochloride]
statistical significance of the urinary oxalate difference from controls [1]: statistically different from controls after 12 days
urinary oxalate levels versus controls [1]: consistently lower
general behavior versus control group [2]: no difference
weight gain versus control group [2]: no difference
Weight ([2]; Day 1): 315 ± 6 grams
Weight ([2]; Day 26): 363 ± 16 grams
oxalate excretion [3]: significantly reduce
effect on oxalate measurements (oxalate oxidase): no effect
therapeutic effect of the dose [4]: had therapeutic effects

Cc1ncc(CO)c(CO)c1O [pyridoxine]
urinary oxalate levels ([5]; stone formers, 200 mg daily): did not reduce
risk of kidney stone formation ([5]; women, 40 mg/day): reduced risk

O=C1N[C@H](C(=O)O)CS1 [OTZ, (L)-2-oxothiazolidine-4-carboxylate]
urinary oxalate concentration [6]: decrease
urinary oxalate levels ([7]; normal individuals): decreased
adverse effects ([7]; patients, administered for only 48 hours): mild to moderate adverse effects
